Data set [1] can be described thus: H+/Na+ transport assay of bead-derived peptides (one-point).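 Note: relative to parent gramicidin A activity set to 1.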 Type of data set: biochemical. Also noted: key: relative activity; mean of two control wells = 1.00. To be noted: bead-derived peptide solution, EYPC/EYPG LUVs. Summed up:
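One-point screen: peptide + pyranine-loaded LUVs, 30 min RT with vortexing, 96-well. Read-out is fluorescence intensity scaled as 100 × (Ix – I0)/(Imax – I0). Imax from Triton X-100, I0 from untreated vesicles, and the mean of the two control wells is set to 1.00.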

In data set [2] the test system is Streptococcus pyogenes SSI-9. As to the kind of experiment: Antibacterial activity assay of bead-derived peptides (three concentrations). The class given is cell-based. On the set-up: key: +++: inhibition by the 640-fold diluted peptide solution; ++: inhibition by the 160-fold diluted solution; +: inhibition by the 40-fold diluted solution; -: no inhibition. To be noted: S. pyogenes, bead-derived peptide solution, three concentrations. Summed up: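 Library peptide stock applied undiluted, 4-fold and 16-fold diluted in DMSO to S. pyogenes SSI-9 (2 × 10^5 CFU) in cation-adjusted Mueller Hinton broth with 5% laked horse blood. After 18 h at 37 °C, growth judged by visible cell precipitation.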

The subject of data set [3] is P388 mouse leukemia cells. To be noted: 92 h. Summed up: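 P388 cells at 1 × 10^4 cells/mL (final) were exposed to library peptides (stocks diluted 250-fold in RPMI1640/10% FBS) for 92 h at 37 °C, 5% CO2. Viable cells were counted by WST-1/1-methoxy PMS (4 h), absorbance 415 nm, and expressed as cell viability (%).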

Structures are written as SMILES. Where a SMILES comes first, the peptide text is derived from it. [ ]: non-standard residue; d: D form. The star is where a group is joined. NHCH2CH2OH = OCCN*; For = O=C*

Here are results for twelve compounds from paper PMC7531004, “Discovery of gramicidin A analogues with altered activities by multidimensional screening of a one-bead-one-compound library” (Nature Communications, 2020).

As for `CNC(=O)C[C@@H](NC(=O)[C@H](Cc1c[nH]c2ccccc12)NC(=O)[C@@H](CC(C)C)NC(=O)[C@H](Cc1c[nH]c2ccccc12)NC(=O)[C@@H](CC(C)C)NC(=O)[C@H](Cc1c[nH]c2ccccc12)NC(=O)[C@H](NC(=O)[C@@H](NC(=O)[C@@H](CC(C)C)NC(=O)[C@H](C)NC(=O)[C@@H](CC(C)C)NC(=O)[C@H](C)NC(=O)CNC(=O)[C@@H](NC=O)C(C)C)C(C)C)C(C)C)C(=O)N[C@@H](Cc1c[nH]c2ccccc12)C(=O)NCCO` [compound 11401] (For-VGA[dL]A[dL]V[dV]W[dL]W[dL]W[dD](NHMe)W-NHCH2CH2OH), the “H+/Na+ transport activity normalized against the value of 1 (1.00)” value (shortened to “H+/Na+ transport activity normalized”) in data set [1] was 1.09. In data set [2], the antibacterial activity entry is on record as “-”. In data set [3], this compound had a cell viability/% of 56.6%.

For `CC(C)C[C@@H](NC(=O)[C@H](C)NC(=O)CNC(=O)[C@@H](NC=O)C(C)C)C(=O)N[C@@H](C)C(=O)N[C@H](CC(C)C)C(=O)N[C@H](C(=O)N[C@H](CC(C)C)C(=O)N[C@@H](Cc1c[nH]c2ccccc12)C(=O)N[C@@H](C(=O)N[C@@H](Cc1c[nH]c2ccccc12)C(=O)N[C@H](CC(C)C)C(=O)N[C@@H](Cc1c[nH]c2ccccc12)C(=O)N[C@H](CC(C)C)C(=O)N[C@@H](Cc1c[nH]c2ccccc12)C(=O)NCCO)[C@H](C)O)C(C)C` [compound 11408] (For-VGA[dL]A[dL]V[dL]W[dT]W[dL]W[dL]W-NHCH2CH2OH), in data set [1], the “H+/Na+ transport activity normalized” value is 1.30. Moreover, the antibacterial activity entry in data set [2] is “-”. The cell viability/% in data set [3] is recorded as 57.5%.

For `CNC(=O)C[C@@H](NC(=O)[C@H](Cc1c[nH]c2ccccc12)NC(=O)[C@@H](CC(C)C)NC(=O)[C@H](Cc1c[nH]c2ccccc12)NC(=O)[C@@H](CC(C)C)NC(=O)[C@H](Cc1c[nH]c2ccccc12)NC(=O)[C@H](NC(=O)[C@@H](NC(=O)[C@H](NC(=O)[C@H](C)NC(=O)[C@@H](CC(C)C)NC(=O)[C@H](C)NC(=O)CNC(=O)[C@@H](NC=O)C(C)C)C(C)C)C(C)C)C(C)C)C(=O)N[C@@H](Cc1c[nH]c2ccccc12)C(=O)NCCO` [compound 11422] (For-VGA[dL]A[dV]V[dV]W[dL]W[dL]W[dD](NHMe)W-NHCH2CH2OH), in data set [1], the “H+/Na+ transport activity normalized” value worked out at 1.04. Further, the antibacterial activity entry in data set [2] is given as “+”. The compound further yielded a cell viability/% in data set [3] of 47.4%.

With `CC(C)C[C@@H](NC(=O)[C@H](C)NC(=O)CNC(=O)[C@@H](NC=O)C(C)C)C(=O)N[C@@H](C)C(=O)N[C@@H](C(=O)N[C@H](C(=O)N[C@H](CC(C)C)C(=O)N[C@@H](Cc1c[nH]c2ccccc12)C(=O)N[C@H](CC(C)C)C(=O)N[C@@H](Cc1c[nH]c2ccccc12)C(=O)N[C@@H](C(=O)N[C@@H](Cc1c[nH]c2ccccc12)C(=O)N[C@H](CC(C)C)C(=O)N[C@@H](Cc1c[nH]c2ccccc12)C(=O)NCCO)[C@H](C)O)C(C)C)C(C)C` [compound 11425] (For-VGA[dL]A[dV]V[dL]W[dL]W[dT]W[dL]W-NHCH2CH2OH), in data set [1], the “H+/Na+ transport activity normalized” value worked out at 1.12. Besides, in data set [2], the antibacterial activity result is “+”. For the same compound, in data set [3], the cell viability/% is reported as 41.5%.

As for `CC(C)C[C@@H](NC(=O)[C@H](C)NC(=O)[C@H](NC(=O)[C@H](C)NC(=O)CNC(=O)[C@@H](NC=O)C(C)C)C(C)C)C(=O)N[C@H](C(=O)N[C@@H](C(=O)N[C@@H](Cc1c[nH]c2ccccc12)C(=O)N[C@@H](C(=O)N[C@@H](Cc1c[nH]c2ccccc12)C(=O)N[C@H](CC(C)C)C(=O)N[C@@H](Cc1c[nH]c2ccccc12)C(=O)N[C@H](CC(C)C)C(=O)N[C@@H](Cc1c[nH]c2ccccc12)C(=O)NCCO)C(C)C)[C@H](C)O)C(C)C` [compound 11433] (For-VGA[dV]A[dL]V[dT]W[dV]W[dL]W[dL]W-NHCH2CH2OH), the “H+/Na+ transport activity normalized” value in data set [1] was determined as 1.38. For the same compound, in data set [2], the antibacterial activity entry is “-”. In data set [3], the cell viability/% is recorded as 51.1%.

As for `CC(C)C[C@@H](NC(=O)[C@H](C)NC(=O)CNC(=O)[C@@H](NC=O)C(C)C)C(=O)N[C@@H](C)C(=O)N[C@@H](C(=O)N[C@H](C(=O)N[C@@H](C(=O)N[C@@H](Cc1c[nH]c2ccccc12)C(=O)N[C@@H](C(=O)N[C@@H](Cc1c[nH]c2ccccc12)C(=O)N[C@H](CC(C)C)C(=O)N[C@@H](Cc1c[nH]c2ccccc12)C(=O)N[C@@H](C(=O)N[C@@H](Cc1c[nH]c2ccccc12)C(=O)NCCO)C(C)C)C(C)C)C(C)C)C(C)C)C(C)C` [compound 11438] (For-VGA[dL]A[dV]V[dV]W[dV]W[dL]W[dV]W-NHCH2CH2OH), in data set [1], the “H+/Na+ transport activity normalized” value turned out to be 1.18. Besides, the antibacterial activity result in data set [2] is “++”. This compound displayed a cell viability/% in data set [3] of 100.0%.

Consider `CC(C)C[C@@H](NC(=O)[C@H](C)NC(=O)[C@H](NC(=O)[C@H](C)NC(=O)CNC(=O)[C@@H](NC=O)C(C)C)C(C)C)C(=O)N[C@H](C(=O)N[C@H](CC(C)C)C(=O)N[C@@H](Cc1c[nH]c2ccccc12)C(=O)N[C@@H](C(=O)N[C@@H](Cc1c[nH]c2ccccc12)C(=O)N[C@H](CC(C)C)C(=O)N[C@@H](Cc1c[nH]c2ccccc12)C(=O)N[C@H](CC(C)C)C(=O)N[C@@H](Cc1c[nH]c2ccccc12)C(=O)NCCO)C(C)C)C(C)C` [compound 11439] (For-VGA[dV]A[dL]V[dL]W[dV]W[dL]W[dL]W-NHCH2CH2OH), for which the “H+/Na+ transport activity normalized” value in data set [1] was determined as 1.18. Moreover, the antibacterial activity entry in data set [2] is “-”. Besides, in data set [3], the cell viability/% was 8.1%.

For `CC(C)[C@H](NC=O)C(=O)NCC(=O)N[C@@H](C)C(=O)N[C@@H](C(=O)N[C@@H](C)C(=O)N[C@@H](C(=O)N[C@H](C(=O)N[C@@H](C(=O)N[C@@H](Cc1c[nH]c2ccccc12)C(=O)N[C@@H](C(=O)N[C@@H](Cc1c[nH]c2ccccc12)C(=O)N[C@@H](C(=O)N[C@@H](Cc1c[nH]c2ccccc12)C(=O)N[C@@H](C(=O)N[C@@H](Cc1c[nH]c2ccccc12)C(=O)NCCO)C(C)C)C(C)C)C(C)C)C(C)C)C(C)C)C(C)C)[C@H](C)O` [compound 11453] (For-VGA[dT]A[dV]V[dV]W[dV]W[dV]W[dV]W-NHCH2CH2OH), in data set [1], the “H+/Na+ transport activity normalized” value came out at 1.04. The antibacterial activity result in data set [2] is listed as “-”. Further, in data set [3], the cell viability/% came to 49.2%.

Turning to `CC(C)C[C@@H](NC(=O)[C@H](C)NC(=O)[C@H](NC(=O)[C@H](C)NC(=O)CNC(=O)[C@@H](NC=O)C(C)C)[C@H](C)O)C(=O)N[C@H](C(=O)N[C@H](CC(C)C)C(=O)N[C@@H](Cc1c[nH]c2ccccc12)C(=O)N[C@@H](C(=O)N[C@@H](Cc1c[nH]c2ccccc12)C(=O)N[C@H](CC(C)C)C(=O)N[C@@H](Cc1c[nH]c2ccccc12)C(=O)N[C@H](CC(C)C)C(=O)N[C@@H](Cc1c[nH]c2ccccc12)C(=O)NCCO)C(C)C)C(C)C` [compound 11561] (For-VGA[dT]A[dL]V[dL]W[dV]W[dL]W[dL]W-NHCH2CH2OH), the “H+/Na+ transport activity normalized” value in data set [1] is 1.01. In addition, the antibacterial activity entry in data set [2] is “-”. Besides, in data set [3], the cell viability/% stood at 100.0%.

Regarding `CNC(=O)C[C@@H](NC(=O)[C@@H](NC(=O)[C@@H](CC(C)C)NC(=O)[C@H](C)NC(=O)[C@@H](CC(C)C)NC(=O)[C@H](C)NC(=O)CNC(=O)[C@@H](NC=O)C(C)C)C(C)C)C(=O)N[C@@H](Cc1c[nH]c2ccccc12)C(=O)N[C@@H](C(=O)N[C@@H](Cc1c[nH]c2ccccc12)C(=O)N[C@@H](C(=O)N[C@@H](Cc1c[nH]c2ccccc12)C(=O)N[C@H](CC(C)C)C(=O)N[C@@H](Cc1c[nH]c2ccccc12)C(=O)NCCO)C(C)C)C(C)C` [compound 11601] (For-VGA[dL]A[dL]V[dD](NHMe)W[dV]W[dV]W[dL]W-NHCH2CH2OH), the “H+/Na+ transport activity normalized” value in data set [1] came to 1.23. The antibacterial activity result in data set [2] was “-”. In data set [3], this compound displayed a cell viability/% of 98.9%.

For the compound `CC(C)C[C@@H](NC(=O)[C@H](C)NC(=O)CNC(=O)[C@@H](NC=O)C(C)C)C(=O)N[C@@H](C)C(=O)N[C@H](CC(C)C)C(=O)N[C@H](C(=O)N[C@H](CC(C)C)C(=O)N[C@@H](Cc1c[nH]c2ccccc12)C(=O)N[C@@H](C(=O)N[C@@H](Cc1c[nH]c2ccccc12)C(=O)N[C@@H](C(=O)N[C@@H](Cc1c[nH]c2ccccc12)C(=O)N[C@H](CC(C)C)C(=O)N[C@@H](Cc1c[nH]c2ccccc12)C(=O)NCCO)C(C)C)[C@H](C)O)C(C)C` [compound 11660] (For-VGA[dL]A[dL]V[dL]W[dT]W[dV]W[dL]W-NHCH2CH2OH), the “H+/Na+ transport activity normalized” value in data set [1] worked out at 1.09. In data set [2], the antibacterial activity entry is “-”. Moreover, in data set [3], the cell viability/% is 100.0%.

As to `CC(C)C[C@@H](NC(=O)[C@H](Cc1c[nH]c2ccccc12)NC(=O)[C@@H](CC(C)C)NC(=O)[C@@H](NC(=O)[C@H](NC(=O)[C@H](C)NC(=O)[C@H](NC(=O)[C@H](C)NC(=O)CNC(=O)[C@@H](NC=O)C(C)C)[C@H](C)O)C(C)C)C(C)C)C(=O)N[C@@H](Cc1c[nH]c2ccccc12)C(=O)N[C@@H](C(=O)N[C@@H](Cc1c[nH]c2ccccc12)C(=O)N[C@@H](C(=O)N[C@@H](Cc1c[nH]c2ccccc12)C(=O)NCCO)C(C)C)C(C)C` [compound 11772] (For-VGA[dT]A[dV]V[dL]W[dL]W[dV]W[dV]W-NHCH2CH2OH), the “H+/Na+ transport activity normalized” value in data set [1] is 1.04. The antibacterial activity entry in data set [2] is recorded as “-”. Moreover, the cell viability/% in data set [3] is given as 100.0%.
